{
  "source": "patent US20100179142A1",
  "about": "(priority 2003, published 2010)",
  "key": {"[1]": {"tested_on": "A431 vulval carcinoma xenografts", "assay": "Human A431 vulval carcinoma tumour xenografts in nude mice", "settings": "p.o. daily, AZD2171 3 mg/kg/day, ZD1839 50 mg/kg/day or both; for Number of tumours regressing after 24 days of treatment (treatment from day 28 to day 52): regressing/total", "method": "5×10^6 A431 tumour cells in 0.1 ml of serum free Dulbecco's Modified Eagle's Medium (DMEM) were injected subcutaneously (s.c.) into the flank of each athymic (nu/nu genotype) mouse. Eleven days after inoculation tumours were excised and dissected to generate cubic tumour fragments of 0.5-1 mm^3, which were implanted into further nude mice for a therapy experiment. Tumour volumes were assessed by bilateral Vernier caliper measurement and, taking length to be the longest diameter across the tumour and width the corresponding perpendicular, calculated using the formula (length×width)×the square root of (length×width)×(π/6). […] Inhibition of tumour growth from the start of treatment was assessed on day 45 (the point at which control animals were removed from the experiment because of tumour burden) by comparison of the differences in tumor volume between control and treated groups. In addition, the number of tumour regressions following 24 days of treatment was ascertained (tumour regression being evident if the tumour volume at day 52 was smaller than the pre-treatment value on day 28)."}, "MMTV-neu tumours": {"tested_on": "MMTV-neu tumours", "type": "in vivo, mice", "experimental": "Following pregnancy, which induces activation of the promoter, MMTV-neu mice spontaneously develop multiple tumours within each mammary gland. […] Control animals were dosed with vehicle (1% polysorbate 80). Due to variability in the growth of spontaneous tumours, dosing commenced at different times relative to the assessment of tumour volume, which was determined twice weekly on all animals using calipers. To simplify the analysis, data within each group were collated in 3 day intervals (e.g. tumour volumes from mice receiving either 2, 3 or 4 doses of compound were pooled and the mean volume plotted against “day 3”). Data is plotted for measurements grouped over 3 day periods ie 2-4, 5-7, 8-10 etc. Statistical analysis was performed on measurements between 20 and 22 days of dosing."}},
  "data": [
    {"smiles": "COc1cc2c(Oc3ccc4[nH]c(C)cc4c3F)ncnc2cc1OCCCN1CCCC1", "note": "[AZD2171, 4-(4-fluoro-2-methylindol-5-yloxy)-6-methoxy-7-(3-(pyrrolidin-1-yl)propoxy)quinazoline]", "values": [
      {"measurement": "Number of tumours regressing after 24 days of treatment (treatment from day 28 to day 52)", "setting": "[1]", "result": "2/10"},
      {"measurement": "Mean % Inhibition of tumour growth following 17 days of treatment (treatment from day 28 to day 45)", "setting": "[1]; versus control at day 45", "result": "95% (P < 0.001)"},
      {"measurement": "inhibition of growth of established MMTV-neu tumours", "setting": "MMTV-neu tumours; AZD2171 alone 1 or 3 mg/kg/day, orally once-daily, 20-22 days of dosing, P<0.05", "result": "inhibited the growth of established (≧0.4 cm^3) MMTV-neu tumours significantly"}
    ]},
    {"smiles": "COc1cc2ncnc(Nc3ccc(F)c(Cl)c3)c2cc1OCCCN1CCOCC1", "note": "[ZD1839, N-(3-chloro-4-fluorophenyl)-7-methoxy-6-(3-morpholinopropoxy)quinazolin-4-amine, reference compound]", "values": [
      {"measurement": "Number of tumours regressing after 24 days of treatment (treatment from day 28 to day 52)", "setting": "[1]", "result": "2/10"},
      {"measurement": "anti-tumour effect in MMTV-neu mice", "setting": "MMTV-neu tumours; mouse, in vivo", "result": "significant anti-tumour effect"}
    ]}
  ]
}
